Assay results: patent publication US8796244B2, “Imidazopyridine derivatives as inhibitors of receptor tyrosine kinases” (Astex Therapeutics Ltd, priority 2008, dated 2014)
Counter-ions that a name gives are not always drawn. Like-named read-outs stand apart in the source and are kept apart here.

Experiments:
[1] = test system: parental wild-type Ba/F3 cells; assay: Ba/F3 (WT) cell proliferation assay (Alamar Blue); type: cell-based; conditions: Mus musculus; for inhibition at 10 µM / inhibition at 3 µM: BaF3, read-out: BaF3 WT prolif, % inhibition
[2] = test system: LP-1 cell line (FGF-1/Heparin induced pERK); assay: Cell-based pERK ELISA, LP-1 cells; conditions: Homo sapiens, LP-1, read-out: LP-1 pERK ELISA (μM)
[3] = BaF3, 72 hours, Alamar Blue, read-out: BaF3 WT prolif
[4] = BaF3, 72 h, read-out: BaF3 WT prolif (μM)

Row | SMILES | IC50 [1, 3] [µM] | IC50 [2] [µM] | inhibition at 10 µM [1] [%] | inhibition at 3 µM [1] [%] | IC50 [1, 4] [µM]
1 | O=C(NCC(F)(F)F)Nc1cccc(-c2cnc3cc(-c4ccc(Cl)nn4)ccn23)c1 [Example 33, 1-{3-[7-(6-Chloropyridazin-3-yl)-imidazo[1,2-a]pyridin-3-yl]phenyl}-3-(2,2,2-trifluoroethyl)urea] | 0.32 | 0.057 | – | – | –
2 | O=C(NCC(F)(F)F)Nc1cccc(-c2cnc3cc(-c4ncc(F)c(NCCO)n4)ccn23)c1 [Example 164] | 4.2 | 0.26 | – | – | –
3 | O=C(NCC(F)(F)F)Nc1cccc(-c2cnc3cc(-c4cnccn4)ccn23)c1 [Example 30, 1-[3-(7-Pyrazin-2-ylimidazo[1,2-a]pyridin-3-yl)phenyl]-3-(2,2,2-trifluoroethyl)urea] | 0.13 | 0.045 | – | – | –
4 | Cn1cncc1C#Cc1ccn2c(-c3cccc(NC(=O)NCC(F)(F)F)c3)cnc2c1 [Example 13B, 1-{3-[7-(3-Methyl-3H-imidazol-4-ylethynyl)-imidazo[1,2-a]pyridin-3-yl]-phenyl}-3-(2,2,2-trifluoro-ethyl)-urea dihydrochloride] | – | 0.031 | 44 | – | –
5 | O=C(NCC(F)(F)F)Nc1cncc(-c2cnc3cc(Cl)ccn23)c1 [Example 31, 1-[5-(7-Chloroimidazo[1,2-a]pyridin-3-yl)pyridin-3-yl]-3-(2,2,2-trifluoroethyl)urea] | – | 0.82 | 0 | – | –
6 | CN(C)CC#Cc1ccn2c(-c3cccc(NC(=O)NCC(F)(F)F)c3)cnc2c1 [Example 14, 1-{3-[7-(3-Dimethylaminoprop-1-ynyl)imidazo[1,2-a]pyridin-3-yl]phenyl}-3-(2,2,2-trifluoroethyl)urea] | 1.4 | 0.1 | – | – | –
7 | CCNC(=O)Nc1cccc(-c2cnc3cc(-c4ncccn4)ccn23)c1 [Compound 280] | – | 0.35 | – | 74 | –
8 | COc1cnc(-c2ccn3c(-c4cccc(NC(=O)NCC(F)(F)F)c4)cnc3c2)cn1 [Example 89, 1-{3-[7-(5-Methoxy-pyrazin-2-yl)-imidazo[1,2-a]pyridin-3-yl]-phenyl}-3-(2,2,2-trifluoro-ethyl)-urea] | 0.097 | 0.073 | – | – | –
9 | O=C(NCC(F)(F)F)Nc1cccc(-c2cnc3cc(-c4ccc(NCCO)nn4)ccn23)c1 [Example 67, 1-(3-{7-[6-(2-Hydroxy-ethylamino)-pyridazin-3-yl]-imidazo[1,2-a]pyridin-3-yl}-phenyl)-3-(2,2,2-trifluoro-ethyl)-urea] | 2.1 | 0.84 | – | – | –
10 | Nc1ccnc(-c2ccn3c(-c4cccc(NC(=O)NCC(F)(F)F)c4)cnc3c2)c1 [Example 108, 1-{3-[7-(4-Amino-pyridin-2-yl)-imidazo[1,2-a]pyridin-3-yl]-phenyl}-3-(2,2,2-trifluoro-ethyl)-urea diformate] | – | 1.2 | 46 | – | –
11 | Nc1ccnc(-c2ccn3c(-c4cccc(NC(=O)NCC(F)(F)F)c4)cnc3c2)n1 [Example 110, 1-{3-[7-(4-Amino-pyrimidin-2-yl)-imidazo[1,2-a]pyridin-3-yl]-phenyl}-3-(2,2,2-trifluoro-ethyl)-urea] | – | 0.0917 | 43 | – | –
12 | Nc1nc(-c2ccn3c(-c4cncc(NC(=O)NCC(F)(F)F)c4)cnc3c2)ncc1F [Example 168] | – | 0.43 | 0 | – | –
13 | CNc1ncc(-c2ccn3c(-c4cccc(NC(=O)NCC(F)(F)F)c4)cnc3c2)cc1C [Example 161] | 0.15 | 0.01 | – | – | –
14 | O=C(NCC(F)(F)F)Nc1cccc(-c2cnc3cc(-c4ncc(F)cn4)ccn23)c1 [Example 60, 1-{3-[7-(5-Fluoro-pyrimidin-2-yl)-imidazo[1,2-a]pyridin-3-yl]-phenyl}-3-(2,2,2-trifluoro-ethyl)-urea hydrochloride] | – | 0.087 | 0 | – | –
15 | Cn1nc(-c2ccn3c(-c4cccc(NC(=O)NCC(F)(F)F)c4)cnc3c2)ccc1=O [Example 62, 1-{3-[7-(1-Methyl-6-oxo-1,6-dihydro-pyridazin-3-yl)-imidazo[1,2-a]pyridin-3-yl]-phenyl}-3-(2,2,2-trifluoro-ethyl)-urea hydrochloride] | – | 0.11 | – | – | 1.1
16 | O=C(NCC(F)(F)F)Nc1cccc(-c2cnc3cc(-c4ccc(CO)cn4)ccn23)c1 [Example 92, 1-{3-[7-(5-Hydroxymethyl-pyridin-2-yl)-imidazo[1,2-a]pyridin-3-yl]-phenyl}-3-(2,2,2-trifluoro-ethyl)-urea formate] | – | 0.11 | – | – | 0.53
17 | CN(C)CCCOc1ccc(-c2ccn3c(-c4cccc(NC(=O)NCC(F)(F)F)c4)cnc3c2)cn1 [Example 144, 1-(3-{7-[6-(3-Dimethylamino-propoxy)-pyridin-3-yl]-imidazo[1,2-a]pyridin-3-yl}-phenyl)-3-(2,2,2-trifluoro-ethyl)-urea] | 3.6 | 0.13 | – | – | –
18 | CC(C)(CO)Nc1ccc(-c2ccn3c(-c4cccc(NC(=O)NCC(F)(F)F)c4)cnc3c2)nn1 [Example 81, 1-(3-{7-[6-(2-Hydroxy-1,1-dimethyl-ethylamino)-pyrid-azin-3-yl]-1,7-dihydro-imidazo[1,2-a]pyridin-3-yl}-phenyl)-3-(2,2,2-trifluoro-ethyl)-urea hydrochloride] | – | 0.028 | – | 20 | –
19 | O=C(NCC(F)(F)F)Nc1cncc(-c2cnc3cc(-c4ncccn4)ccn23)c1 [Example 35, 1-[5-(7-Pyrimidin-2-yl-imidazo[1,2-a]pyridine-3-yl)pyridin-3-yl]-3-(2,2,2-trifluoroethyl)urea hydrochloride] | – | 0.33 | 0 | – | –
20 | O=C(NCC(F)(F)F)Nc1cccc(-c2cnc3cc(-c4ccc(=O)[nH]n4)ccn23)c1 [Example 52, 1-{3-[7-(6-Oxo-1,6-dihydropyridazin-3-yl)-imidazo[1,2-a]pyridin-3-yl]-phenyl}-3-(2,2,2-trifluoro-ethyl)-urea] | – | 0.33 | 51 | – | –
21 | NC1CCN(c2ccc(-c3ccn4c(-c5cccc(NC(=O)NCC(F)(F)F)c5)cnc4c3)nn2)CC1 [Example 75, 1-(3-{7-[6-(4-Amino-piperidin-1-yl)-pyridazin-3-yl]-imidazo[1,2-a]pyridin-3-yl}-phenyl)-3-(2,2,2-trifluoro-ethyl)-urea tris-trifluoroacetate] | – | 0.63 | 32 | – | –
22 | CN1CCN(c2ncc(-c3ccn4c(-c5cccc(NC(=O)NCC(F)(F)F)c5)cnc4c3)cn2)CC1 [Example 79, 1-(3-{7-[2-(4-Methyl-piperazin-1-yl)-pyrimidin-5-yl]-imidazo[1,2-a]pyridin-3-yl}-phenyl)-3-(2,2,2-trifluoro-ethyl)-urea bis-formate] | – | 0.035 | – | – | 0.4
23 | Nc1cnc(-c2ccn3c(-c4cccc(NC(=O)NCC(F)(F)F)c4)cnc3c2)cn1 [Example 85, 1-{3-[7-(5-Amino-pyrazin-2-yl)-imidazo[1,2-a]pyridin-3-yl]-phenyl}-3-(2,2,2-trifluoro-ethyl)-urea formate] | – | 0.065 | – | – | 0.17
24 | O=C(NCC(F)(F)F)Nc1cccc(-c2cnc3cc(-c4nccnn4)ccn23)c1 [Example 141, 1-[3-(7-[1,2,4]-Triazin-3-yl-imidazo[1,2-a]pyridin-3-yl)-phenyl]-3-(2,2,2-trifluoro-ethyl)-urea] | 0.042 | 0.11 | – | – | –
25 | O=C(NCC(F)(F)F)Nc1cccc(-c2cnc3cc(C#Cc4ccsc4)ccn23)c1 [Example 16, 1-[3-(7-Thiophen-3-ylethynylimidazo[1,2-a]pyridinyl)phenyl]-3-(2,2,2-trifluoroethyl)urea] | 0.83 | 0.11 | – | – | –
